What all share (test): inhibition of tumour cell growth, NCI panel, 48 h
Test [1] concerns 786-0 renal.
Test [2] relates to CAKI-1 renal.
Test [3] relates to COLO 205 colon.
In test [4] the test system is HOP-92 NSCLC.
For test [5], the system named is MCF7 breast.
Test [6] relates to NCI-H460 lung.
Test [7] deals with NCI/ADR-RES ovarian.
In test [8] the test system is OVCAR-4 ovarian.
Test [9] deals with OVCAR-5 ovarian.
The test system of test [10] is SNB-75 CNS.

Structures are written as SMILES.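 1) Cells in 96-well plates. 2) Compound, 48 h, 5 concentrations. 3) Linear interpolation between surrounding doses. 4) Unreached endpoint = highest concentration. Here, GI50 denotes the concentration required for 50% inhibition of growth. The concentration for full growth arrest is given as TGI.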

Regarding `O=C1c2ccccc2C(=O)N1c1ccc(OCCN2CCCCC2)cc1`, the TGI in [1], in [2], in test [3], in test [4], in test [5] and in test [6] was more than 100 µM each time. Also, the TGI in test [7], in test [8] and in test [9] was more than 100 µM throughout.
Turning to `COc1nc(=O)n(C2CC(N=[N+]=[N-])C(CO)O2)cc1C` (stereo not drawn), the TGI in test [1], in test [4], in test [5], in test [6], in [7] and in [8] was more than 100 µM each time. This compound displayed a TGI in test [9] of more than 100 µM.
For the compound `CCCCCCCSCC(O)COC(c1ccccc1)(c1ccccc1)c1ccccc1` (stereo not drawn), the TGI in test [1], in [2], in test [3], in test [4], in test [5] and in [6] was more than 100 µM throughout. The TGI in test [7], in test [8] and in test [9] was more than 100 µM throughout.
As to `CC12ON=C(c3ccccc3)N1C=CN1C(c3ccccc3)=NOC12` (stereo not drawn), the TGI in [1], in [2], in test [3], in [5], in [6] and in [7] was more than 100 µM in each case. Besides, the TGI in test [9] and in test [10] was more than 100 µM throughout.
In the case of `O=[N+]([O-])C1(C2([N+](=O)[O-])CCCC2)CCCC1`, the TGI in test [1], in test [2], in [3], in test [5], in test [6] and in test [7] was more than 100 µM each time. Further, the TGI in test [8], in [9] and in test [10] was more than 100 µM each time.
For `O=C(CCN1CCCC1)Nc1ccc2c(NCCCc3ccccc3)c3ccccc3nc2c1`, the GI50 in [2] was 14.8 µM; in [4], 0.875 µM; in [5] it was 0.467 µM; in [6], 0.46 µM; in test [7], 15.1 µM; in test [8], 0.812 µM. Besides, the GI50 was 1.12 µM in test [9] and 1.17 µM in test [10]. Besides, the TGI in test [2] turned out to be 28 µM; in [4], 2.24 µM; in test [5], 1.8 µM; in [6], 1.6 µM; in [7] it was 71.9 µM; in [8], 2.26 µM. Besides, the values for the TGI in [9] and in [10] were 2.4 µM and 2.41 µM, respectively.
Turning to `COc1cc2c(cc1OC)C(Cl)C(c1cc(OC)c(OC)c(OC)c1)=C2Cl` (stereo not drawn), the TGI turned out to be 32.5 µM in test [2]; 32.9 µM in [3]; 27.9 µM in test [4]; 32.4 µM in test [6]; 18.1 µM in test [10].
For `O=C(NC(Nc1ccc(F)c(Cl)c1)(C(F)(F)F)C(F)(F)F)C(C(F)(F)F)C(F)(F)F`, the TGI in test [1] is more than 100 µM; in test [2], more than 100 µM; in test [3], 74.4 µM; in test [4], more than 100 µM; in test [5], more than 100 µM; in [6], more than 100 µM. Besides, the TGI in test [7] worked out at 63.4 µM; in test [8], 88.9 µM; in test [9], 78.1 µM.
`COCN1C(=O)[C@@H]2CCCN2C(=O)c2cc([N+](=O)[O-])ccc21`: the TGI in test [1], in test [2], in test [3], in test [5], in [7] and in [8] was more than 100 µM in each case. The TGI in [9] and in test [10] was more than 100 µM in each case.
Take `CC(=O)c1cn(-c2ccc(Cl)cc2)c(=O)c2c(N)n[nH]c12`: the TGI in [1], in [2], in test [3], in test [6], in test [7] and in test [8] was more than 100 µM throughout. Moreover, the TGI in [10] was more than 100 µM.
Regarding `CC1OC(=O)c2ccccc2NC1=O` (stereo not drawn), the TGI in [1], in [2], in test [3], in [4], in [6] and in test [7] was more than 100 µM throughout. Moreover, the TGI in test [8], in test [9] and in test [10] was more than 100 µM in each case.
Turning to `CSc1c(C#N)c2n(c3ccccc3[n+]2C)c2ncccc12`, the TGI in [1] was 50.3 µM; in [2] it was more than 100 µM; in test [3], 54.2 µM; in test [5], 42.8 µM; in test [6], more than 100 µM; in test [7] it was 85.5 µM. Besides, the TGI in test [8] was 91.1 µM; in test [9] it was 84.6 µM; in test [10] it was 50.4 µM.
On to `CN1CCN(c2ccc3[nH]c(C4=C(O)c5nc(CO)n(C)c5C(=O)C4=O)nc3n2)CC1`, for which the TGI in [1], in test [2], in [3], in test [4], in test [6] and in test [7] was more than 100 µM throughout. Further, the TGI in test [8], in [9] and in [10] was more than 100 µM each time.
`CC(C)(C)C=C=C(C(C)(C)C)P(=O)(O)O`: the TGI in test [1], in test [2], in test [3], in [4], in test [6] and in test [7] was more than 100 µM throughout. In addition, the TGI in test [8], in [9] and in [10] was more than 100 µM throughout.

The values above are taken from PubChem BioAssay (NCI).
